# Measured values as given in US10004748B2, “Methods of treating PR-positive, luminal A breast cancer with PI3K inhibitor, pictilisib” (Genentech, Inc., priority 2014, dated 2018).
# Several values for one entry are separate records, joined by “and”; a condition that tells them apart may be missing. Equal entries are not always repeated. Where two headings read alike, the source gives them in different places.
# Columns and labels:
# [1] = for Discontinued GDC-0941/placebo: Non-PD, patients (%): events unrelated to disease progression, all arms on fulvestrant
# [2] = test system: advanced or metastatic ER+ breast cancer (MBC); settings: for Median PFS / Events (PFS): all arms on fulvestrant; for HR (PFS): GDC-0941 vs placebo, both on fulvestrant
# [3] = test system: cytochrome P450 enzymes, including CYP2C8 and CYP3A4/5; experiment: In vitro metabolism studies; assay type: in vitro ADME; settings: preliminary results
# [4] = 340 mg dose in combination with fulvestrant
# [5] = All luminal A/B typed patients (N 74/72)
# [6] = PIK3CA Mutation Status Positive
# [7] = PIK3CA Mutation Status Wild Type
# [8] = PR+ subgroup of PAM50-typed patients (N 50/52)
structure (smiles),measurement,setting,value
"CS(=O)(=O)N1CCN(Cc2cc3nc(-c4cccc5[nH]ncc45)nc(N4CCOCC4)c3s2)CC1 [GDC-0941, 4-(2-(1H-indazol-4-yl)-6-((4-(methylsulfonyl)piperazin-1-yl)methyl)thieno[3,2-d]pyrimidin-4-yl)morpholine]",Patients who experienced a dose modification for an adverse event,[1]; [4],66%
same,Rate of discontinuation for non-PD events,[1]; [4],31%
same,Tolerability,[1]; [4],acceptable tolerability profile
same,"Discontinued GDC-0941/placebo: Non-PD, patients (%)",[1],28 (31%)
same,"Urinary tract infection, All Grades, patients (%)","[1]; human, in vivo",9 (10%)
same,"AST increased, All Grades, patients (%)","[1]; n = 89, with fulvestrant",11 (12%)
same,"AST increased, Grade ≥3, patients (%)","[1]; n = 89, with fulvestrant",3 (3%)
same,"Abdominal pain, All Grades, patients (%)","[1]; n = 89, with fulvestrant",9 (10%)
same,"Abdominal pain, Grade ≥3, patients (%)","[1]; n = 89, with fulvestrant",2 (2%)
same,"Alopecia, All Grades, patients (%)","[1]; n = 89, with fulvestrant",10 (11%)
same,"Arthralgia, All Grades, patients (%)","[1]; n = 89, with fulvestrant",11 (12%)
same,"Constipation, All Grades, patients (%)","[1]; n = 89, with fulvestrant",14 (16%)
same,"Cough, All Grades, patients (%)","[1]; n = 89, with fulvestrant",14 (15%)
same,"Decreased appetite, All Grades, patients (%)","[1]; n = 89, with fulvestrant",20 (23%)
same,"Decreased appetite, Grade ≥3, patients (%)","[1]; n = 89, with fulvestrant",1 (1%)
same,"Diarrhea, All Grades, patients (%)","[1]; n = 89, with fulvestrant",58 (65%)
same,"Diarrhea, Grade ≥3, patients (%)","[1]; n = 89, with fulvestrant",5 (6%)
same,"Discontinued GDC-0941/placebo: Adverse Events, patients (%)","[1]; n = 89, with fulvestrant",16 (18%)
same,"Discontinued fulvestrant for non-PD, patients (%)","[1]; n = 89, with fulvestrant",15 (17%)
same,"Dry skin, All Grades, patients (%)","[1]; n = 89, with fulvestrant",9 (10%)
same,"Dysgeusia, All Grades, patients (%)","[1]; n = 89, with fulvestrant",35 (39%)
same,"Dyspepsia, All Grades, patients (%)","[1]; n = 89, with fulvestrant",10 (11%)
same,"Dyspneoa, All Grades, patients (%)","[1]; n = 89, with fulvestrant",10 (11%)
same,"Fatigue, All Grades, patients (%)","[1]; n = 89, with fulvestrant",36 (40%)
same,"Fatigue, Grade ≥3, patients (%)","[1]; n = 89, with fulvestrant",5 (6%)
same,"Headache, All Grades, patients (%)","[1]; n = 89, with fulvestrant",12 (14%)
same,"Headache, Grade ≥3, patients (%)","[1]; n = 89, with fulvestrant",1 (1%)
same,"Hot flush, All Grades, patients (%)","[1]; n = 89, with fulvestrant",12 (13%)
same,"Hyperglycemia, All Grades, patients (%)","[1]; n = 89, with fulvestrant",16 (18%)
same,"Hyperglycemia, Grade ≥3, patients (%)","[1]; n = 89, with fulvestrant",4 (5%)
same,"Injection site pain, All Grades, patients (%)","[1]; n = 89, with fulvestrant",10 (11%)
same,"Mucosal inflammation, All Grades, patients (%)","[1]; n = 89, with fulvestrant",9 (10%)
same,"Muscle spasms, All Grades, patients (%)","[1]; n = 89, with fulvestrant",10 (11%)
same,"Nausea, All Grades, patients (%)","[1]; n = 89, with fulvestrant",48 (54%)
same,"Nausea, Grade ≥3, patients (%)","[1]; n = 89, with fulvestrant",2 (2%)
same,"Pruritus, All Grades, patients (%)","[1]; n = 89, with fulvestrant",11 (12%)
same,"Pruritus, Grade ≥3, patients (%)","[1]; n = 89, with fulvestrant",1 (1%)
same,"Pyrexia, All Grades, patients (%)","[1]; n = 89, with fulvestrant",12 (13%)
same,"Stomatitis, All Grades, patients (%)","[1]; n = 89, with fulvestrant",16 (18%)
same,"Stomatitis, Grade ≥3, patients (%)","[1]; n = 89, with fulvestrant",2 (2%)
same,"Vomiting, All Grades, patients (%)","[1]; n = 89, with fulvestrant",24 (27%)
same,"Vomiting, Grade ≥3, patients (%)","[1]; n = 89, with fulvestrant",2 (2%)
same,Median PFS,[2]; All Patients (ITT),6.2 Months
same,HR (PFS),[2]; [5],0.81
same,Events (PFS),[2]; [5],33/39
same,Median PFS,[2]; [5],6.18/5.09 months
same,Median PFS,[2]; Baseline ECOG Score 0,6.6 Months
same,Median PFS,[2]; Baseline ECOG Score 1,5.0 Months
same,Median PFS,[2]; Bone Only Non-Measureable Disease at Baseline No,5.0 Months
same,Events (PFS),[2]; LumA (N 46/52),15/27
same,Events (PFS),[2]; LumB (N 28/20),18/12
same,Median PFS,[2]; LumB (N 28/20),3.7 months and 3.71/3.55 months
same,HR (PFS),[2]; LumB,1.05
same,Median PFS,[2]; Measurable Disease at Baseline (Derived) Yes,5.0 Months
same,Median PFS,[2]; Num of Previous Therapies in Metastatic Setting 0,6.6 Months
same,Median PFS,[2]; Num of Previous Therapies in Metastatic Setting 1,6.2 Months
same,Median PFS,[2]; Num of Previous Therapies in Metastatic Setting 3+,3.6 Months
same,Median PFS,[2]; PIK3CA Helical Domain Mutation Status Positive,7.3 Months
same,Median PFS,[2]; PIK3CA Helical Domain Mutation Status Wild Type,6.2 Months
same,Median PFS,[2]; PIK3CA Kinase Domain Mutation Status Positive,6.2 Months
same,Median PFS,[2]; PIK3CA Kinase Domain Mutation Status Wild Type,6.6 Months
same,Median PFS,[2]; [6],6.2 Months
same,Median PFS,[2]; [7],5.8 Months
same,Median PFS,[2]; PR Status Negative,5 Months
same,Median PFS,"[2]; PR Status Negative, listed as GDC0941",5.0 Months
same,Median PFS,[2]; PR Status Positive (n=116),7.2 Months
same,Median PFS,[2]; PR Status Unknown,2.9 Months
same,HR (PFS),[2]; [8],0.47
same,Events (PFS),[2]; [8],19/32
same,Median PFS,[2]; [8],7.16/3.68 months
same,Events (PFS),"[2]; PR+, LumA (N 34/39)",9/25
same,HR (PFS),"[2]; PR+, LumA (n=73)",0.31
same,Events (PFS),"[2]; PR+, LumB (N 16/13)",10/7
same,Median PFS,"[2]; PR+, LumB (N 16/13)",3.91/3.32 months
same,HR (PFS),"[2]; PR+, LumB",0.92
same,Events (PFS),"[2]; PR−, LumA (N 9/7)",3/2
same,HR (PFS),"[2]; PR−, LumA",1.75
same,Median PFS,[2]; Primary Resistance (Derived),5.0 Months
same,Median PFS,[2]; Primary/Secondary Resistance Unknown,1.7 Months
same,Median PFS,[2]; Received Prior Adjuvant/Neo-Adjuvant Therapy No,4.1 Months
same,Median PFS,[2]; Received Prior Adjuvant/Neo-Adjuvant Therapy Yes,7.2 Months
same,Median PFS,[2]; Visceral Disease No,8.2 Months
same,Median PFS,[2]; Visceral Disease Yes,4.1 Months
same,Overall improvement of median PFS vs placebo group,[2]; patients positive for both the estrogen and progesterone receptor,over 15 weeks
same,in vitro metabolism,[3],"partially metabolized by multiple Phase I cytochrome P450 enzymes, including CYP2C8 and CYP3A4/5"
"C[C@]12CC[C@@H]3c4ccc(O)cc4C[C@@H](CCCCCCCCC[S+]([O-])CCCC(F)(F)C(F)(F)F)[C@H]3[C@@H]1CC[C@@H]2O (stereo partly drawn) [fulvestrant, (7α,17β)-7-{9-[(4,4,5,5,5-pentafluoropentyl)sulfinyl]nonyl}estra-1,3,5(10)-triene-3,17-diol, reference compound]","Discontinued GDC-0941/placebo: Non-PD, patients (%)",[1],10 (13%)
same,Median PFS,[2]; All Patients (ITT),3.8 Months
same,Median PFS,[2]; Luminal A subgroup (n=98),5.26 months
same,Median PFS,[2]; [6],5.1 Months
same,Median PFS,[2]; [7],3.6 Months
same,Median PFS,[2]; PR Status Positive (n=116),3.7 Months
same,Median PFS,[2]; PR-positive and Luminal A (n=73),5.7 months
same,Response rate on the basis of local assessment,[2]; all patients,5%
same,Response rate,[2]; patients with PIK3CA-mutant tumors,3%
same,Response rate,[2]; patients without a detectable PIK3CA-mutant tumor,5%
